Assay results as given in patent US5891882A, “Benzopyranopyrrole and benzopyranopyridine α-1 adenergic compounds” (priority 1997, dated 1999).
Structures can show the parent of a compound that is named as a salt. Where two headings read alike, the source gives them in different places.

What was measured:
[1] = molecular target: T1, α-1a adrenoreceptor (bovine) (Bos taurus, UniProt P18130); assay: In vitro [3H]-prazosin radioligand binding, cloned α-1a adrenoreceptor expressed in LTK cells
T1 construct: expressed in transfected cells; cDNA from TULCO; membranes
T1 sequence (P18130 1-466): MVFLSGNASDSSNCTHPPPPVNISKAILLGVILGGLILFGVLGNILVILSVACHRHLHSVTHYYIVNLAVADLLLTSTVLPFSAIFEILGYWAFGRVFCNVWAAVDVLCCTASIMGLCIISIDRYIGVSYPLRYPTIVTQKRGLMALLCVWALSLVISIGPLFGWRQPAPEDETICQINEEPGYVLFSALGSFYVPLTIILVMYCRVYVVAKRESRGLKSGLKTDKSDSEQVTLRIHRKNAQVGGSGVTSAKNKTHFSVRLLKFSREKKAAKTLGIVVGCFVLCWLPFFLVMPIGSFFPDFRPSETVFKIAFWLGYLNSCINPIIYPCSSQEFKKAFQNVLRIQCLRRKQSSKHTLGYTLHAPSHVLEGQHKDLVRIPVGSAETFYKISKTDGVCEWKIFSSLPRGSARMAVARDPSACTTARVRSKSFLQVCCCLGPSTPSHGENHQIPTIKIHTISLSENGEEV
Description: (§1) The cDNA clones encoding the α-1 adrenoreceptors (α-1a, α-1b, and α-1d) were obtained from TULCO (Triangle Universities Licensing Consortium, Research Triangle Park, N.C.) and inserted into the eukaryotic expression vector SnaB30. In this vector, expression of the adrenoreceptor gene is under the transcriptional control of an SV40 early promoter. Positive drug selection is provided by a neomycin-resistance gene. Mouse fibroblast cells (LTK) were transfected with the α1 expression plasmids and grown in Dulbecco's modified Eagle's medium (DMEM) containing 10% fetal calf serum and […]. Stable G418-resistant parental lines were generated, with successful expression of adrenoreceptor protein monitored using radioligand binding techniques. Stable single cell clones derived from the parental lines were screened in adrenoreceptor binding assays to identify clones having high adrenoreceptor density. Roller bottle cultures of the cloned lines were used to provide cell membranes for subsequent adrenoreceptor binding characterization studies. A cell line containing the SnaB30 vector expressing the human erythropoietin gene served as a negative control.
(§2) For adrenoreceptor binding assays, large scale membrane preparations were utilized in which 6 million cells were seeded into small (450 cm^2) Corning tissue culture roller bottles. 200 mL of DMEM containing 10% fetal calf serum and 300 μM G418 were added to each roller bottle. A 95% air/5% CO2 gas mixture (sterile) was injected into each roller bottle prior to sealing. The bottles were then incubated at 37° C. on a roller rack for 5 days. Cells were re-fed with fresh medium after 3 days in culture.
(§3) On the fifth day of culture, growth medium was removed from cells grown in roller bottles, and the cells were washed twice with PBS (Sigma, 120 mM NaCl, 2.7 mM KCl, 10 mM Na2 HPO4 --NaH2 PO4, pH=7.4). Cells were detached from the roller bottles by incubating for 15 minutes at 37° C. in a Tris-EDTA solution (10 mM Tris, 100 mM NaCl, 1 mM EDTA, pH=7.4). The cell suspension from each roller bottle was decanted into tared centrifuge tubes and kept on ice. An aliquot of each cell suspension was generally taken for cell counting. Cells were centrifuged at 3000×G for 5 min at 2°-4° C., washed with PBS and recentrifuged. The supernatant was decanted and the pellet weighed to determine the wet weight of cells. Cells were washed a final time in 40 vol 5 mM Tris-HCl, 5 mM EDTA, pH=7.7, and centrifuged at 40,000×G for 10 minutes. Cells were homogenized in 10 mL of 50 mM Tris-HCl, 5 mM EDTA (pH=7.4) and diluted to 40 mL/tube. Homogenates were centrifuged at 40,000×G for 10 minutes. The supernatant was decanted and the pellets rehomogenized in 50 mM Tris-HCl (pH=7.4) and centrifuged as before. The supernatant was decanted and the homogenate resuspended in 6.25 volumes (per gram wet weight) of 50 mM Tris-HCl and aliquots of the pooled homogenates frozen in liquid N2 and stored at -70° C. until the time of assay. Rat submaxillary glands were used for α-1A adrenoreceptors and were prepared essentially as described (Michel, A. D., Loury, D. N. and Whiting, R. L., Brit. J. Pharmacol. 98: 83-889 (1989)).
(§4) Receptor binding assays for α-1 adrenoreceptors were performed essentially as described by Greengrass and Bremner (Eur. J. Pharmacol. 55: 323-326 (1979)). […] Radioactivity was determined by standard liquid scintillation techniques. Data were analyzed as previously described (Hancock, A. A., Kyncl, J. J., Martin, Y. C. and DeBernardis, J. F., J Receptor Res. 8: 23-46 (1988)).

[2] = molecular target: T2, α-1d adrenoreceptor (rat) (Rattus norvegicus, UniProt P23944); assay: In vitro [3H]-prazosin radioligand binding, cloned α-1d adrenoreceptor expressed in LTK cells
T2 construct: expressed in transfected cells; cDNA from TULCO; membranes
T2 sequence (P23944 1-561): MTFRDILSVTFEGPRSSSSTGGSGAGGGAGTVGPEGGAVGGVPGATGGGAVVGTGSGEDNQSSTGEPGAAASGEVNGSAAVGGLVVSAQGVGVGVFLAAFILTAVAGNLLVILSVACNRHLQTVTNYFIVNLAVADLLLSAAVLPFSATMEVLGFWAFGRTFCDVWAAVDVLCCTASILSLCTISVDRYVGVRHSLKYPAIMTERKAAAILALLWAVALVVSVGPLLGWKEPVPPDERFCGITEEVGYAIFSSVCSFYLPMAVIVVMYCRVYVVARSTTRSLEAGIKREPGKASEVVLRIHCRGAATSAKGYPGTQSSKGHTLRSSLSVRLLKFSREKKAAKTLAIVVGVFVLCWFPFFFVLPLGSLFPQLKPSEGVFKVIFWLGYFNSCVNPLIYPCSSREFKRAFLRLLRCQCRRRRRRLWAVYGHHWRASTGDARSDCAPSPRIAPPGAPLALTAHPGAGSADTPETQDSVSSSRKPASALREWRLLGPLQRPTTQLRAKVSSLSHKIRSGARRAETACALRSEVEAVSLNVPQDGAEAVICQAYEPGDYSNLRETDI
Protocol: Additionally, binding affinity against the pharmacologically defined α-1A adrenoreceptor (rat submaxillary gland) was measured.
as §1, §2, §3, §4

[3] = cloned bovine α-1a in LTK cells, [3H]prazosin 0.2 nM, read-out: Radioligand Binding (Ki; nM) 1a (Bovine)
[4] = cloned rat α-1d in LTK cells, [3H]prazosin 0.2 nM, read-out: Radioligand Binding (Ki; nM) 1d (Rat)

Row | Ki [1, 3] [nM] | Ki [2, 4] [nM] | SMILES | Ki [1] [nM] | Ki [2] [nM]
1 | – | – | COc1cccc2c1[C@@H]1CCN(CCCCn3c(=O)[nH]c4c(sc5ccccc54)c3=O)C[C@H]1CO2 (relative stereo) [Example 87, 3-[4-((±)-trans-10-Methoxy-1,3,4,4a,5,10b-hexahydro-2H-[1]-benzopyrano[3,4-c]pyrido-3-yl)butyl]-[1]-benzthieno[3,2-d]pyrimidine-2,4(1H,3H)-dione hydrochloride] | 0.227 | 0.704
2 | – | – | COc1cccc2c1[C@@H]1CCN(CCCCn3c(=O)[nH]c4c(sc5cccnc54)c3=O)C[C@H]1CO2 (relative stereo) [Example 88, 3-[4-((±)-trans-10-Methoxy-1,3,4,4a,5,10b-hexahydro-2H-[1]-benzopyrano[3,4-c]pyrido-3-yl)butyl]-pyrido[2',3':4,5]thieno[3,2-d]pyrimidine-2,4(1H,3H)-dione hydrochloride] | 0.11 | 0.259
3 | 0.066 | 0.495 | COc1cc2[nH]c(=O)n(CCN3CC[C@H]4c5c(OC)cccc5OC[C@@H]4C3)c(=O)c2cc1OC (relative stereo) [Example 91, 3-[2-((±)-trans-10-Methoxy-1,3,4,4a,5,10b-hexahydro-2H-[1]-benzopyrano[3,4-c]pyrido-3-yl)ethyl]-6,7-dimethoxy-quinazoline-2,4(1H,3H)-dione hydrochloride] | – | –
4 | 0.082 | 0.701 | COc1ccc2c(n1)sc1c(=O)n(CCCCN3C[C@@H]4COc5cccc(OC)c5[C@@H]4C3)c(=O)[nH]c12 [Example 33, hydrochloride] | – | –
